Experimental data reported in patent US20090012087A1, “New Aza-Bicyclohexane Compounds Useful As Inhibitors Of Thrombin” (ASTRAZENECA AB, priority 2007, published 2009).
Where a name gives a salt, the structure may show the parent alone.

Target: T1, Human α-thrombin (Homo sapiens, UniProt P00734)
T1 construct: Human α-thrombin; purchased Sigma Chemical Co. or Hematologic Technologies
Assay: Test A: Determination of Thrombin Inhibition with a Chromogenic, Robotic Assay
Assay type: biochemical
Conditions: chromogenic substrate S-2366 0.30 mmol/L, α-thrombin 0.020 NIHU/mL, 40 minutes incubation at 37° C.
Method: Determination of Thrombin Inhibition with a Chromogenic, Robotic Assay
The thrombin inhibitor potency is measured with a chromogenic substrate method, in a Plato 3300 robotic microplate processor (Rosys AG, CH-8634 Hombrechtikon, Switzerland), using 96-well, half volume microtitre plates (Costar, Cambridge, Mass., USA; Cat No 3690). Stock solutions of test substance in DMSO (72 μL), 0.1-1 mmol/L, are diluted serially 1:3 (24+48 μL) with DMSO to obtain ten different concentrations, which are analysed as samples in the assay. 2 μL of test sample is diluted with 124 μL assay buffer, 12 μL of chromogenic substrate solution (S-2366, Chromogenix, Mölndal, Sweden) in assay buffer and finally 12 μL of α-thrombin solution (Human α-thrombin, Sigma Chemical Co. or Hematologic Technologies) in assay buffer, are added, and the samples mixed. The final assay concentrations are: test substance 0.00068-133 μmol/L, S-2366 0.30 mmol/L, α-thrombin 0.020 NIHU/mL. The linear absorbance increment during 40 minutes incubation at 37° C. is used for calculation of percentage inhibition for the test samples, as compared to blanks without inhibitor.

Row | SMILES | IC50
1 | CC(C)(C1CC1)C(O)C(=O)N1[C@H](C(=O)NCc2cc(Cl)ccc2-n2cnnn2)C[C@@H]2C[C@@H]21 (stereo partly drawn) [Example 33, (1S,3S,5S)-2-(3-Cyclopropyl-2-hydroxy-3-methyl-butyryl)-2-aza-bicyclo[3.1.0]hexane-3-carboxylic acid 5-chloro-2-tetrazol-1-yl-benzylamide] | 10 nM
2 | CC(C)(C)OC[C@@H](N)C(=O)N1C[C@@H]2C[C@@H]2[C@H]1C(=O)NCc1cc(Cl)ccc1-n1cnnn1 [Example 54, (1S,2S,5R)-3-((R)-2-Amino-3-tert-butoxy-propionyl)-3-aza-bicyclo[3.1.0]hexane-2-carboxylic acid 5-chloro-2-tetrazol-1-yl-benzylamide acetate] | 6 nM
3 | CC(C)(C1CC1)C(O)C(=O)N1C[C@@H]2C[C@@H]2[C@H]1C(=O)NCc1cc(Cl)ccc1-n1cnnn1 (stereo partly drawn) [Example 62, (1S,2S,5R)-3-(3-Cyclopropyl-2-hydroxy-3-methyl-butyryl)-3-aza-bicyclo[3.1.0]hexane-2-carboxylic acid 5-chloro-2-tetrazol-1-yl-benzylamide] | 2 nM
4 | CC(C)(C)C[C@@H](N)C(=O)N1C[C@@H]2C[C@@H]2[C@H]1C(=O)NCc1cc(Cl)ccc1-n1cnnn1 [Example 18, (1S,2S,5R)-3-((R)-2-Amino-4,4-dimethyl-pentanoyl)-3-aza-bicyclo[3.1.0]hexane-2-carboxylic acid 5-chloro-2-tetrazol-1-yl-benzylamide hydrochloride] | 1 nM
5 | O=C(NCc1cc(Cl)ccc1-n1cnnn1)[C@@H]1C[C@@H]2C[C@@H]2N1C(=O)C1(O)CCCc2ncccc21 (stereo partly drawn) [Example 76, (1S,3S,5S)-2-(5-Hydroxy-5,6,7,8-tetrahydro-quinoline-5-carbonyl)-2-aza-bicyclo[3.1.0]hexane-3-carboxylic acid 5-chloro-2-tetrazol-1-yl-benzylamide] | 11 nM
6 | O=C(NCc1cc(F)ccc1-n1cnnn1)[C@@H]1C[C@@H]2C[C@@H]2N1C(=O)[C@H](O)c1cccc(Cl)c1 [Example 70, (1S,3S,5S)-2-[(R)-2-(3-Chloro-phenyl)-2-hydroxy-acetyl]-2-aza-bicyclo[3.1.0]hexane-3-carboxylic acid 5-fluoro-2-tetrazol-1-yl-benzylamide] | 36 nM
7 | O=C(N1CC2CC1(C(=O)NCc1cc(Cl)ccc1-n1cnnn1)C2)C1(O)CCOc2ccccc21 (racemic) [Example 64, (rac)-2-(4-Hydroxy-1-benzopyran-4-carbonyl)-2-aza-bicyclo[2.1.1]hexane-1-carboxylic acid 5-chloro-2-tetrazol-1-yl-benzylamide] | 40 nM
8 | CC(C)(C)C[C@@H](N)C(=O)N1[C@H](C(=O)NCc2cc(Cl)ccc2-n2cnnn2)C[C@@H]2C[C@@H]21 [Example 20, (1S,3S,5S)-2-((R)-2-Amino-4,4-dimethyl-pentanoyl)-2-aza-bicyclo[3.1.0]hexane-3-carboxylic acid 5-chloro-2-tetrazol-1-yl-benzylamide hydrochloride] | 2 nM
9 | O=C(NCc1cc(Cl)ccc1-n1cnnn1)[C@@H]1C[C@@H]2C[C@@H]2N1C(=O)C1(O)CCCc2ncccc21 (stereo partly drawn) [Example 77, (1S,3S,5S)-2-(5-Hydroxy-5,6,7,8-tetrahydro-quinoline-5-carbonyl)-2-aza-bicyclo[3.1.0]hexane-3-carboxylic acid 5-chloro-2-tetrazol-1-yl-benzylamide] | 9 nM
10 | O=C([C@H](O)C1CCCCC1)N1CC[C@@H]2C[C@@]21C(=O)NCc1cc(Cl)ccc1-n1cnnn1 [Example 27, (1S,5R)-2-((R)-2-Cyclohexyl-2-hydroxy-acetyl)-2-aza-bicyclo[3.1.0]hexane-1-carboxylic acid-5-chloro-2-tetrazol-1-yl-benzylamide] | 7 nM
